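Grown in 96-well plates, cells were treated for 48 hours with each compound at five concentrations. Insufficient inhibition: endpoint recorded as highest concentration tested. At the TGI there is no net growth.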
Tests used:
Test in all cases: NCI tumour cell line growth inhibition, 48 h
HCT-116 colon = test system: HCT-116 colon
KM12 colon = test system: KM12 colon
NCI-H23 lung = test system: NCI-H23 lung
T-47D breast = test system: T-47D breast
SK-MEL-28 melanoma = test system: SK-MEL-28 melanoma
SK-MEL-2 melanoma = test system: SK-MEL-2 melanoma
HCT-15 colon = test system: HCT-15 colon
HS 578T breast = test system: HS 578T breast
UO-31 renal = test system: UO-31 renal
HT29 colon = test system: HT29 colon
OVCAR-8 ovarian = test system: OVCAR-8 ovarian
NCI-H460 lung = test system: NCI-H460 lung
M14 melanoma = test system: M14 melanoma
SK-OV-3 ovarian = test system: SK-OV-3 ovarian
OVCAR-5 ovarian = test system: OVCAR-5 ovarian
SK-MEL-5 melanoma = test system: SK-MEL-5 melanoma
A549 NSCLC = test system: A549 NSCLC
EKVX NSCLC = test system: EKVX NSCLC
SF-268 CNS = test system: SF-268 CNS
COLO 205 colon = test system: COLO 205 colon
SR leukemia = test system: SR leukemia
NCI-H522 lung = test system: NCI-H522 lung
LOX IMVI melanoma = test system: LOX IMVI melanoma
SW-620 colon = test system: SW-620 colon
CAKI-1 renal = test system: CAKI-1 renal
TK-10 renal = test system: TK-10 renal
PC-3 prostate = test system: PC-3 prostate
UACC-257 melanoma = test system: UACC-257 melanoma
IGROV1 ovarian = test system: IGROV1 ovarian
MOLT-4 leukemia = test system: MOLT-4 leukemia
HOP-62 NSCLC = test system: HOP-62 NSCLC
DU-145 prostate = test system: DU-145 prostate
A498 renal = test system: A498 renal
NCI-H226 lung = test system: NCI-H226 lung
ACHN renal = test system: ACHN renal
RXF 393 renal = test system: RXF 393 renal
HOP-92 NSCLC = test system: HOP-92 NSCLC
MDA-MB-435 = test system: MDA-MB-435
K-562 leukemia = test system: K-562 leukemia
OVCAR-3 ovarian = test system: OVCAR-3 ovarian
SNB-75 CNS = test system: SNB-75 CNS
UACC-62 melanoma = test system: UACC-62 melanoma
NCI/ADR-RES ovarian = test system: NCI/ADR-RES ovarian
MDA-MB-231 breast = test system: MDA-MB-231 breast
MDA-N = test system: MDA-N
SNB-19 CNS = test system: SNB-19 CNS
CCRF-CEM leukemia = test system: CCRF-CEM leukemia
SF-295 CNS = test system: SF-295 CNS
SN12C renal = test system: SN12C renal
U251 CNS = test system: U251 CNS
OVCAR-4 ovarian = test system: OVCAR-4 ovarian
786-0 renal = test system: 786-0 renal
MALME-3M melanoma = test system: MALME-3M melanoma
MCF7 breast = test system: MCF7 breast
BT-549 breast = test system: BT-549 breast
HCC-2998 colon = test system: HCC-2998 colon
LXFL 529 NSCLC = test system: LXFL 529 NSCLC
RPMI-8226 leukemia = test system: RPMI-8226 leukemia
DLD-1 colon = test system: DLD-1 colon
M19-MEL melanoma = test system: M19-MEL melanoma
KM20L2 colon = test system: KM20L2 colon
SNB-78 CNS = test system: SNB-78 CNS
SF-539 CNS = test system: SF-539 CNS
DMS 114 small cell lung = test system: DMS 114 small cell lung
HL-60(TB) leukemia = test system: HL-60(TB) leukemia
DMS 273 small cell lung = test system: DMS 273 small cell lung
XF 498 CNS = test system: XF 498 CNS
HOP-18 NSCLC = test system: HOP-18 NSCLC

Measured: TGI

CCCCCCCCCC(=O)OCC1(CO)C/C(=C/CC(C(C)C)C(C)C)C(=O)O1 (centres undefined)
28.7 µM: COLO 205 colon
82.3 µM: MALME-3M melanoma
39.8 µM: NCI-H522 lung
97 µM: K-562 leukemia
83.7 µM: KM12 colon
81.6 µM: SW-620 colon
73.1 µM: CCRF-CEM leukemia
89.4 µM: U251 CNS
95.8 µM: UO-31 renal
56.6 µM: CAKI-1 renal
54 µM: MOLT-4 leukemia
not listed: LXFL 529 NSCLC | RPMI-8226 leukemia | DLD-1 colon | M19-MEL melanoma | KM20L2 colon | SNB-78 CNS | SF-539 CNS | DMS 114 small cell lung | HL-60(TB) leukemia | DMS 273 small cell lung | XF 498 CNS | HOP-18 NSCLC
> 100 µM: all other assays above

C/C(C=O)=C1\C(O)C[C@]1(C)C1CC(C)(C)CC1O (some centres undefined)
93.9 µM: OVCAR-4 ovarian
not listed: T-47D breast | HCT-15 colon | HS 578T breast | SK-OV-3 ovarian | PC-3 prostate | IGROV1 ovarian | DU-145 prostate | MDA-MB-435 | SNB-75 CNS | UACC-62 melanoma | NCI/ADR-RES ovarian | MDA-MB-231 breast | MDA-N | MCF7 breast | BT-549 breast | XF 498 CNS | HOP-18 NSCLC
> 100 µM: all other assays above

Cc1ccc2c(c1)C(C1Cc3c(C)cccc3C1=O)OC2=O (centres undefined)
not listed: LXFL 529 NSCLC | DLD-1 colon | M19-MEL melanoma | KM20L2 colon | SNB-78 CNS | DMS 114 small cell lung | DMS 273 small cell lung | XF 498 CNS | HOP-18 NSCLC
> 100 µM: all other assays above

O=C(/C=C/c1ccc(O)c(O)c1)NC(CO)C(=O)O (centres undefined)
64.6 µM: NCI/ADR-RES ovarian
not listed: IGROV1 ovarian | LXFL 529 NSCLC | DLD-1 colon | M19-MEL melanoma | KM20L2 colon | SNB-78 CNS | DMS 114 small cell lung | HL-60(TB) leukemia | DMS 273 small cell lung | XF 498 CNS | HOP-18 NSCLC
> 100 µM: all other assays above

COc1ccc(/C=C2/C(=O)N(C(=O)c3ccc(Cl)cc3)N=C2C)cc1OC
not listed: T-47D breast | HS 578T breast | SR leukemia | PC-3 prostate | MOLT-4 leukemia | DU-145 prostate | NCI-H226 lung | RXF 393 renal | MDA-MB-435 | SNB-75 CNS | NCI/ADR-RES ovarian | MDA-MB-231 breast | MDA-N | MCF7 breast | BT-549 breast | DMS 273 small cell lung | HOP-18 NSCLC
> 100 µM: all other assays above

C/C(=N\NC(=S)N(C)C)c1ncc[nH]1
24 µM: MOLT-4 leukemia
7.67 µM: UACC-62 melanoma
21.6 µM: MALME-3M melanoma
16.7 µM: A498 renal
7.31 µM: UO-31 renal
5.07 µM: NCI-H23 lung
5.67 µM: 786-0 renal
39.8 µM: DMS 114 small cell lung
7.85 µM: HOP-92 NSCLC
54.9 µM: CCRF-CEM leukemia
8.15 µM: SF-539 CNS
7.71 µM: IGROV1 ovarian
5.22 µM: U251 CNS
85.9 µM: SNB-75 CNS
31.4 µM: ACHN renal
21.8 µM: SK-OV-3 ovarian
6.19 µM: OVCAR-5 ovarian
7.52 µM: SR leukemia | UACC-257 melanoma
5.87 µM: HL-60(TB) leukemia
70.9 µM: SK-MEL-2 melanoma
66.5 µM: SN12C renal
21.2 µM: K-562 leukemia
9.01 µM: NCI-H522 lung
5.69 µM: M14 melanoma
38.6 µM: HCC-2998 colon
not listed: T-47D breast | HS 578T breast | SK-MEL-5 melanoma | COLO 205 colon | CAKI-1 renal | PC-3 prostate | HOP-62 NSCLC | DU-145 prostate | NCI-H226 lung | MDA-MB-435 | NCI/ADR-RES ovarian | MDA-MB-231 breast | MDA-N | OVCAR-4 ovarian | MCF7 breast | BT-549 breast | SNB-78 CNS | DMS 273 small cell lung
> 100 µM: all other assays above

CCC(=O)N(c1ccccc1)C(C)CN1CCC(O)(c2ccccc2)CC1 (centres undefined)
not listed: KM12 colon | NCI-H460 lung | SW-620 colon | HCC-2998 colon | LXFL 529 NSCLC | DLD-1 colon | M19-MEL melanoma | KM20L2 colon | SNB-78 CNS | DMS 114 small cell lung | DMS 273 small cell lung | XF 498 CNS | HOP-18 NSCLC
> 100 µM: all other assays above
